Like-named read-outs stand apart in the source and are kept apart here.
Test system: HIV-1 (H9/IIB strain)
Assay: Multiple Round HIV-1 Infection Assay (Viking Assay) in MT4-GFP cells
Assay type: cell-based
Conditions: inhibition of reproductive ratio R0
Procedure: Assessing antiviral potency in a Multiple Round HIV-1 Infection Assay (Viking Assay) The antiviral activity of the tenofovir prodrugs of the Examples herein was assessed in an assay that measures the rate of replication of HIV in cell culture, termed the Viking assay (VIral KINetics in Green cells) and performed as follows. HIV-1 replication was monitored using MT4-gag-GFP clone D3 (hereafter designated MT4-GFP), which are MT-4 cells modified to harbor a GFP reporter gene, the expression of which is dependent on the HIV-1 expressed proteins tat and rev. Productive infection of an MT4-GFP cell with HIV-1 results in GFP expression approximately 24 h post-infection. MT4-GFP cells were maintained at 37° C./5% CO2/90% relative humidity in RPMI 1640 supplemented with 10/o fetal bovine serum, 100 U/ml penicillin/streptomycin, and 400 μg/ml G418 to maintain the reporter gene. For infections, MT4-GFP cells were placed in the same medium lacking G418 and infected overnight with HIV-1 (H9/IIB strain) virus at an approximate multiplicity of infection of 0.01 in the same incubation conditions. Cells were then washed and re-suspended in either RPMI 1640 supplemented with 10% or 50% normal human serum (NHS) at 1.6×10^5 cells/mL (10% NHS or 50% NHS, respectively). Compound plates were prepared by dispensing compounds dissolved in DMSO into wells of 384 well poly-D-lysine-coated plates (0.2 μl/well) using an ECHO acoustic dispenser. Each compound was tested in a 10-point serial 3-fold dilution (typical final concentrations: 8.4 μM-0.42 nM). Controls included no inhibitor (DMSO only) and a combination of three antiviral agents (efavirenz, indinavir, an in-house integrase strand transfer inhibitor at final concentrations of 4 μM each). Cells were added (50 μL/well) to compound plates and the infected cells were maintained at 37° C./5% CO2/90% relative humidity.
Infected cells were quantified at two time points, ˜48 h and ˜72 h post-infection, by counting the number of green cells in each well using an Acumen eX3 scanner. The increase in the number of green cells over ˜24 h period gives the reproductive ratio, R0, which is typically 5-15 and has been shown experimentally to be in logarithmic phase (data not shown). Inhibition of R0 is calculated for each well, and IC50s determined by non-linear 4-parameter curve fitting.

[1] = MT4-GFP cells infected with HIV-1, 10% normal human serum, read-out: Viking, IC50 (10% NHS)
[2] = MT4-GFP cells infected with HIV-1, 50% normal human serum, read-out: Viking, IC50 (50% NHS)
[3] = Human immunodeficiency virus 1, MT4-GFP cells infected with HIV-1, 10% normal human serum, read-out: Viking, IC50 (10% NHS)
[4] = Human immunodeficiency virus 1, MT4-GFP cells infected with HIV-1, 50% normal human serum, read-out: Viking, IC50 (50% NHS)

Compound | IC50 [1] | IC50 [2] | IC50 [3] | IC50 [4]
propyl 2-(((R)-((((R)-1-(6-amino-9H-purin- 9-yl)propan-2-yl)oxy)methyl)((3- fluorobenzyl)amino)phosphoryl)amino)-2- methylpropanoate and propyl 2-(((S)-((((R)-1-(6-amino-9H-purin- 9-yl)propan-2-yl)oxy)methyl)((3- fluorobenzyl)amino)phosphoryl)amino)-2- methylpropanoate [Example 8B] | 76 nM | 680 nM |  | 
CCCOC(=O)C(C)(C)NP(=O)(CO[C@H](C)Cn1cnc2c(N)ncnc21)N[C@H](C)c1ccc(C#N)cc1 (stereo partly drawn) [Example 31A, propyl 2-(((R)-((((R)-1-(6-amino-9H-purin-9-yl)propan-2-yl)oxy)methyl)(((R)-1-(4-cyanophenyl)ethyl)amino)phosphoryl)ami-no)-2-methylpropanoate and propyl 2-(((S)-((((R)-1-(6-amino-9H-purin-9-yl)propan-2-yl)oxy)methyl)(((R)-1-(4-cyanophenyl)ethyl)amino)phosphoryl)ami-no)-2-methylpropanoate] | 83 nM | 770 nM |  | 
CC(C)OC(=O)C(C)(C)N[P@@](=O)(CO[C@H](C)Cn1cnc2c(N)ncnc21)N[C@H](C)c1ccc(Cl)cc1 [Example 35A, isopropyl 2-(((R)-((((R)-1-(6-amino-9H-purin-9-yl)propan-2-yl)oxy)methyl)(((R)-1-(4-chlorophenyl)ethyl)amino)phosphoryl)ami-no)-2-methylpropanoate and isopropyl 2-(((S)-((((R)-1-(6-amino-9H-purin-9-yl)propan-2-yl)oxy)methyl)(((R)-1-(4-chlorophenyl)ethyl)amino)phosphoryl)ami-no)-2-methylpropanoate] | 280 nM | 1600 nM |  | 
CCCOC(=O)C(C)(C)NP(=O)(CO[C@H](C)Cn1cnc2c(N)ncnc21)N(C)[C@H](C)c1ccc(Cl)cc1 (single isomer, unassigned) [Example 2B] |  |  | 2 nM | 9.6 nM
CCCOC(=O)C(C)(C)NP(=O)(CO[C@H](C)Cn1cnc2c(N)ncnc21)N[C@@H](C)c1ccc(C(F)(F)F)cc1 (stereo partly drawn) [Example 11B, propyl 2-(((R)-((((R)-1-(6-amino-9H-purin-9-yl)propan-2-yl)oxy)methyl)(((S)-1-(4-(trifluoromethyl)phenyl)ethyl)amino)phos-phoryl)amino)-2-methylpropanoate and propyl 2-(((S)-((((R)-1-(6-amino-9H-purin-9-yl)propan-2-yl)oxy)methyl)(((S)-1-(4-(trifluoromethyl)phenyl)ethyl)amino)phosphoryl)amino)-2-methylpropanoate] | 16 nM | 84 nM |  | 
CCCOC(=O)C(C)(C)NP(=O)(CO[C@H](C)Cn1cnc2c(N)ncnc21)N[C@H](C)c1ccc(Cl)cc1 (stereo partly drawn) [Example 1A, propyl 2-(((R)-((((R)-1-(6-amino-9H-purin-9-yl)propan-2-yl)oxy)methyl(((R)-1-(4-chlorophenyl)ethyl)amino)phosphoryl)amino)-2-methylpropanoate and propyl 2-(((S)-((((R)-1-(6-amino-9H-purin-9-yl)propan-2-yl)oxy)methyl)(((R)-1-(4-chlorophenyl)ethyl)amino)phosphoryl)amino)-2-methylpropanoate] |  |  | 120 nM | 710 nM
propyl 2-(((R)-((((R)-1-(6-amino-9H-purin- 9-yl)propan-2-yl)oxy)methyl)(((R)-1-(4- cyanophenyl)-2,2,2- trifluoroethyl)amino)phosphoryl)amino)-2- methylpropanoate and propyl 2-(((S)-((((R)-1-(6-amino-9H-purin- 9-yl)propan-2-yl)oxy)methyl)(((R)-1-(4- cyanophenyl)-2,2,2- trifluoroethyl)amino)phosphoryl)amino)-2- methylpropanoate [Example 23B] | 47 nM | 140 nM |  | 
CCCOC(=O)C(C)(C)N[P@@](=O)(CO[C@H](C)Cn1cnc2c(N)ncnc21)N[C@H](C)c1ccc(OC)cc1 [Example 15A, propyl 2-(((R)-((((R)-1-(6-amino-9H-purin-9-yl)propan-2-yl)oxy)methyl)(((R)-1-(4-methoxyphenyl)ethyl)amino)phosphoryl)a-mino)-2-methylpropanoate and propyl 2-(((S)-((((R)-1-(6-amino-9H-purin-9-yl)propan-2-yl)oxy)methyl)(((R)-1-(4-methoxyphenyl)ethyl)amino)phosphoryl)a-mino)-2-methylpropanoate] | 74 nM | 410 nM |  | 
propyl 2-(((R)-((((R)-1-(6-amino-9H-purin- 9-yl)propan-2-yl)oxy)methyl)(((S)-1-(p- tolyl)ethyl)amino)phosphoryl)amino)-2- methylpropanoate and propyl 2-(((S)-((((R)-1-(6-amino-9H-purin- 9-yl)propan-2-yl)oxy)methyl)(((S)-1-(p- tolyl)ethyl)amino)phosphoryl)amino)-2- methylpropanoate [Example 18B] | 37 nM | 520 nM |  | 
CCCOC(=O)C(C)(C)NP(=O)(CO[C@H](C)Cn1cnc2c(N)ncnc21)N[C@@H](C)c1ccc(OC(F)(F)F)cc1 (stereo partly drawn) [Example 19B, propyl 2-(((R)-((((R)-1-(6-amino-9H-purin-9-yl)propan-2-yl)oxy)methyl)(((S)-1-(4-(trifluoromethoxy)phenyl)ethyl)amino)phos-phoryl)amino)-2-methylpropanoate and propyl 2-(((S)-((((R)-1-(6-amino-9H-purin-9-yl)propan-2-yl)oxy)methyl)(((S)-1-(4-(trifluoromethoxy)phenyl)ethyl)amino)phos-phoryl)amino)-2-methylpropanoate] | 84 nM | 360 nM |  | 
propyl 2-(((R)-((((R)-1-(6-amino-9H-purin- 9-yl)propan-2-yl)oxy)methyl)(((R)-1-(p- tolyl)ethyl)amino)phosphoryl)amino)-2- methylpropanoate and propyl 2-(((S)-((((R)-1-(6-amino-9H-purin- 9-yl)propan-2-yl)oxy)methyl)(((R)-1-(p- tolyl)ethyl)amino)phosphoryl)amino)-2- methylpropanoate [Example 16B] | 4.6 nM | 27 nM |  | 
CCCOC(=O)C(C)(C)NP(=O)(CO[C@H](C)Cn1cnc2c(N)ncnc21)N[C@H](C)c1ccc(OC(F)(F)F)cc1 (some centres unmarked) [Example 3A] |  |  | 80 nM | 780 nM
propyl 2-(((R)-((((R)-1-(6-amino-9H-purin- 9-yl)propan-2-yl)oxy)methyl)(((R)-1-(p- tolyl)ethyl)amino)phosphoryl)amino)-2- methylpropanoate and propyl 2-(((S)-((((R)-1-(6-amino-9H-purin- 9-yl)propan-2-yl)oxy)methyl)(((R)-1-(p- tolyl)ethyl)amino)phosphoryl)amino)-2- methylpropanoate [Example 16A] | 83 nM | 440 nM |  | 
propyl 2-(((R)-((((R)-1-(6-amino-9H-purin- 9-yl)propan-2-yl)oxy)methyl)((4- isopropylbenzyl)amino)phosphoryl)amino)- 2-methylpropanoate and propyl 2-(((S)-((((R)-1-(6-amino-9H-purin- 9-yl)propan-2-yl)oxy)methyl)((4- isopropylbenzyl)amino)phosphoryl)amino)- 2-methylpropanoate [Example 5B] | 48 nM | 240 nM |  | 
CCCOC(=O)C(C)(C)NP(=O)(CO[C@H](C)Cn1cnc2c(N)ncnc21)N[C@H](c1ccc(OC(F)(F)F)cc1)C(F)(F)F (some centres unmarked) [Example 4B] | 16 nM | 160 nM |  | 
CCCOC(=O)C(C)(C)N[P@@](=O)(CO[C@H](C)Cn1cnc2c(N)ncnc21)N[C@@H](C)c1ccccc1OC [Example 17A, propyl 2-(((R)-((((R)-1-(6-amino-9H-purin-9-yl)propan-2-yl)oxy)methyl)(((S)-1-(2-methoxyphenyl)ethyl)amino)phosphoryl)a-mino)-2-methylpropanoate and propyl 2-(((S)-((((R)-1-(6-amino-9H-purin-9-yl)propan-2-yl)oxy)methyl)(((S)-1-(2-methoxyphenyl)ethyl)amino)phosphoryl)a-mino)-2-methylpropanoate] | 24 nM | 310 nM |  | 

Source: US11123355B2, “Antiviral benzyl-amine phosphodiamide compounds” (Merck Sharp & Dohme Corp., priority 2016, dated 2021)
